ChEMBL document CHEMBL5291721, “A preclinical secondary pharmacology resource illuminates target-adverse drug reaction associations of marketed drugs” (Nat Commun, 2023)

Tests used:
[1] = molecular target: Prostaglandin G/H synthase 1 (Homo sapiens, UniProt P23219); type: functional
Thromboxane A2 receptor = molecular target: T1, Thromboxane A2 receptor (Homo sapiens, UniProt P21731); type: functional, cell-based
T1 sequence (P21731 whole entry): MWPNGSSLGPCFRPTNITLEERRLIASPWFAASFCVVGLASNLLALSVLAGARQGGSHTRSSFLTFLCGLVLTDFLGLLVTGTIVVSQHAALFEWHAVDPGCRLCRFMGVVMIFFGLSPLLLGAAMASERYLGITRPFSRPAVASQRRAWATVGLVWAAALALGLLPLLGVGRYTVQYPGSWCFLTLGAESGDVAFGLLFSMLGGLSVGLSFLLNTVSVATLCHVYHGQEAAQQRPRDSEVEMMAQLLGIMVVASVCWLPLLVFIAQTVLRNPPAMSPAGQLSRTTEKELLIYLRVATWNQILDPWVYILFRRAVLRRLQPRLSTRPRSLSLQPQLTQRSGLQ

Progesterone receptor = molecular target: T2, Progesterone receptor (Homo sapiens, UniProt P06401)
T2 sequence (P06401 whole entry): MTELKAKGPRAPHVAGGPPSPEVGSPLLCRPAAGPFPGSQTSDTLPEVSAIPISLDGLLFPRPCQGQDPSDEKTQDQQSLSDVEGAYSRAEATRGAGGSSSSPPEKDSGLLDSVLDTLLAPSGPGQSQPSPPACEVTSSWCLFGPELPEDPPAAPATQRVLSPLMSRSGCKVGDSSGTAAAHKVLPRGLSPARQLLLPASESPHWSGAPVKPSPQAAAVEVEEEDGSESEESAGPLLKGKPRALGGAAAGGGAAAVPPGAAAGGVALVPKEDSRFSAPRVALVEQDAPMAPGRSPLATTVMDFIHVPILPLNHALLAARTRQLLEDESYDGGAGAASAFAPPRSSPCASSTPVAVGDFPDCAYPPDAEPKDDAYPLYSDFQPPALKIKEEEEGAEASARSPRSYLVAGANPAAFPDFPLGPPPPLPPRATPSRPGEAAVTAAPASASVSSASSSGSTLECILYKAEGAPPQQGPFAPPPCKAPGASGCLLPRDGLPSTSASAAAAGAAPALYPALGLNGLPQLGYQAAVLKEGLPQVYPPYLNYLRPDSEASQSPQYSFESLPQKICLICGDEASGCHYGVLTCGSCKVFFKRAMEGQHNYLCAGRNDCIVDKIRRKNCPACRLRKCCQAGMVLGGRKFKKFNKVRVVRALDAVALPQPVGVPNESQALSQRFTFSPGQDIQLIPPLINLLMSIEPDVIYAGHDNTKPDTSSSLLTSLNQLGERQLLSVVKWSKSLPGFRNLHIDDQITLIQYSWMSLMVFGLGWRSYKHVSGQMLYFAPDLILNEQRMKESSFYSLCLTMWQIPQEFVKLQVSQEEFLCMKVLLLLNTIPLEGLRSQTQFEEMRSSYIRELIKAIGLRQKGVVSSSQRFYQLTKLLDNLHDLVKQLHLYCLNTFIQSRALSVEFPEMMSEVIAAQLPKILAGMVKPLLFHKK

[2] = molecular target: 3',5'-cyclic-AMP phosphodiesterase 4A (Homo sapiens, UniProt P27815); type: functional
[3] = molecular target: T3, Muscarinic acetylcholine receptor M2 (Homo sapiens, UniProt P08172)
T3 sequence (P08172 whole entry): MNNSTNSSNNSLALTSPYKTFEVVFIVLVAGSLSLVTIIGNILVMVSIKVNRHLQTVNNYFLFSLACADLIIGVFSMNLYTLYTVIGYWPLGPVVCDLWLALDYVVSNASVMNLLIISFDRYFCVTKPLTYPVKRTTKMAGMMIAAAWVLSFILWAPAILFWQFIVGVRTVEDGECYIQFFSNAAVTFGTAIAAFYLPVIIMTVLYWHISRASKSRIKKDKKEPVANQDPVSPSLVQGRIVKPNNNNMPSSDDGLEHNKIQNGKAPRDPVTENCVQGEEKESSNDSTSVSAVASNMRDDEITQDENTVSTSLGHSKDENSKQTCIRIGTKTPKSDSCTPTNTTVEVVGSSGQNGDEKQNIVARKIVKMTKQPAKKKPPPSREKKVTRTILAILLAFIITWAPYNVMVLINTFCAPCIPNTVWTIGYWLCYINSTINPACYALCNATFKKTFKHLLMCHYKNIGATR

[4] = molecular target: Vascular endothelial growth factor receptor 2 (Homo sapiens, UniProt P35968); type: functional
Estrogen receptor = molecular target: T4, Estrogen receptor (Homo sapiens, UniProt P03372)
T4 sequence (P03372 whole entry): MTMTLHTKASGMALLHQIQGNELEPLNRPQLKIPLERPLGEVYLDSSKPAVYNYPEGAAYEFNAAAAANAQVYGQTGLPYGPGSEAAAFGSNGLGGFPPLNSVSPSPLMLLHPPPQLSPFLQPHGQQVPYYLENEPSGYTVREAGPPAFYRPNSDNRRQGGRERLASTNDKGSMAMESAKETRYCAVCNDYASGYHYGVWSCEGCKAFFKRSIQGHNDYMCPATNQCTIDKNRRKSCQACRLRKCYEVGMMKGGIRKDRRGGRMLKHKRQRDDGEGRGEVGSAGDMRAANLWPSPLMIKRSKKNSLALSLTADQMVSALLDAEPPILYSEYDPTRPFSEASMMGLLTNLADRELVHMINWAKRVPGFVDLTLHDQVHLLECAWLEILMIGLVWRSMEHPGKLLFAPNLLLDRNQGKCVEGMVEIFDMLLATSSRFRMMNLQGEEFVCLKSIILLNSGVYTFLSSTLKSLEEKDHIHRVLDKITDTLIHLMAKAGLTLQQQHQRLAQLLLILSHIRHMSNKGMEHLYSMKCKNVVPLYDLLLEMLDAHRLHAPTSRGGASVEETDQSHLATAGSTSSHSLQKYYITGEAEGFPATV

[5] = molecular target: Sodium-dependent noradrenaline transporter (Homo sapiens, UniProt P23975)
Also: assay procedure not described here.

Sequence of Prostaglandin G/H synthase 1 (P23219 whole entry): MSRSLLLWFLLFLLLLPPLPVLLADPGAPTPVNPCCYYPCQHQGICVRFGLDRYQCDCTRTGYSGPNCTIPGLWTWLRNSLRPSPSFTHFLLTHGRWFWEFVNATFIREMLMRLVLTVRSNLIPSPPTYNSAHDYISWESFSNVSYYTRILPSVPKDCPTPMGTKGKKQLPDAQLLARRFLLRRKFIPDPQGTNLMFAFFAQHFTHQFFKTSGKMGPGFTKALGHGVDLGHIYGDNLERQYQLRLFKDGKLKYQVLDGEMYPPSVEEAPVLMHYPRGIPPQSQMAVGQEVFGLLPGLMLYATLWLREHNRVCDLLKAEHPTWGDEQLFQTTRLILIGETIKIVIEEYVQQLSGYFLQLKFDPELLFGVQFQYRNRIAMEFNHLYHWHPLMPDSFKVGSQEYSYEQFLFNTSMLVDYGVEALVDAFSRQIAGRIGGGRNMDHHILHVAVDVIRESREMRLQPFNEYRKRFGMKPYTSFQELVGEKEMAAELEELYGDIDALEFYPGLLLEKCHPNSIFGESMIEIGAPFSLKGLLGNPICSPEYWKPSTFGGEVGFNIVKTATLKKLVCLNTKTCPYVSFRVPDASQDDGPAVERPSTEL
Sequence of Vascular endothelial growth factor receptor 2 (P35968 whole entry): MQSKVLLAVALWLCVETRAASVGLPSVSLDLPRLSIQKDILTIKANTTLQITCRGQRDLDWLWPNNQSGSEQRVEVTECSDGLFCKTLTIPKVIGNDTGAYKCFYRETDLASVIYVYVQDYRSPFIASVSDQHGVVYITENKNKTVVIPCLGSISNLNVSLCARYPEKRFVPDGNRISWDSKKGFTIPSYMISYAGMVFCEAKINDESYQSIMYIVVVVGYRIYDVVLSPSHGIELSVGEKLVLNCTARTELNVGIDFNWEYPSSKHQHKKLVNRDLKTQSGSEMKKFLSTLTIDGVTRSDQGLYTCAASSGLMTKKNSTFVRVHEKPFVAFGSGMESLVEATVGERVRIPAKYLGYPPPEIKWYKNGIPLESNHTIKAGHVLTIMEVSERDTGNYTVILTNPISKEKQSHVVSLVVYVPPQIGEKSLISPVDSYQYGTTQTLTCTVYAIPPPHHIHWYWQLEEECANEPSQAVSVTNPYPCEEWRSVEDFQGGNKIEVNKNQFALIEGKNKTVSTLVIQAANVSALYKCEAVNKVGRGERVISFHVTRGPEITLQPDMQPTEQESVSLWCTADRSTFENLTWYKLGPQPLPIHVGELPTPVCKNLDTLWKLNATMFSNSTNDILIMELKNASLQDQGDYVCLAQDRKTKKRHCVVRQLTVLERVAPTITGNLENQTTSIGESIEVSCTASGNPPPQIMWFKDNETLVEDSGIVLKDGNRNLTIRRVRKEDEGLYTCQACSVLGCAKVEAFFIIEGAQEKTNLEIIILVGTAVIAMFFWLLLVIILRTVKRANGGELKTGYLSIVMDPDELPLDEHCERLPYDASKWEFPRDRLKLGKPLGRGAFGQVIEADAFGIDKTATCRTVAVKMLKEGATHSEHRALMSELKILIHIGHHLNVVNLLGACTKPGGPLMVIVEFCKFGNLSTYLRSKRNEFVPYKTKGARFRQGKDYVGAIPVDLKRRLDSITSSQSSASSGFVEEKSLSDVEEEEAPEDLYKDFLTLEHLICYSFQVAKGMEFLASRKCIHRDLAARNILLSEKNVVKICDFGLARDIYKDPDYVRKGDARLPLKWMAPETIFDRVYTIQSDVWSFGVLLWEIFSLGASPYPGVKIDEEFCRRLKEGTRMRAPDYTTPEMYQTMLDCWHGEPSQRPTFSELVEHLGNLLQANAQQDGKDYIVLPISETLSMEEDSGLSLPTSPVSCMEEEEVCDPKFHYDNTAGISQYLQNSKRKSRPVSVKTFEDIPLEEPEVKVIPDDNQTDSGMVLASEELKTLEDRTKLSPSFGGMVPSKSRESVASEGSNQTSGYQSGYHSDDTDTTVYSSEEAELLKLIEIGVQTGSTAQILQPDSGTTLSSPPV
Sequence of 3',5'-cyclic-AMP phosphodiesterase 4A (P27815 whole entry): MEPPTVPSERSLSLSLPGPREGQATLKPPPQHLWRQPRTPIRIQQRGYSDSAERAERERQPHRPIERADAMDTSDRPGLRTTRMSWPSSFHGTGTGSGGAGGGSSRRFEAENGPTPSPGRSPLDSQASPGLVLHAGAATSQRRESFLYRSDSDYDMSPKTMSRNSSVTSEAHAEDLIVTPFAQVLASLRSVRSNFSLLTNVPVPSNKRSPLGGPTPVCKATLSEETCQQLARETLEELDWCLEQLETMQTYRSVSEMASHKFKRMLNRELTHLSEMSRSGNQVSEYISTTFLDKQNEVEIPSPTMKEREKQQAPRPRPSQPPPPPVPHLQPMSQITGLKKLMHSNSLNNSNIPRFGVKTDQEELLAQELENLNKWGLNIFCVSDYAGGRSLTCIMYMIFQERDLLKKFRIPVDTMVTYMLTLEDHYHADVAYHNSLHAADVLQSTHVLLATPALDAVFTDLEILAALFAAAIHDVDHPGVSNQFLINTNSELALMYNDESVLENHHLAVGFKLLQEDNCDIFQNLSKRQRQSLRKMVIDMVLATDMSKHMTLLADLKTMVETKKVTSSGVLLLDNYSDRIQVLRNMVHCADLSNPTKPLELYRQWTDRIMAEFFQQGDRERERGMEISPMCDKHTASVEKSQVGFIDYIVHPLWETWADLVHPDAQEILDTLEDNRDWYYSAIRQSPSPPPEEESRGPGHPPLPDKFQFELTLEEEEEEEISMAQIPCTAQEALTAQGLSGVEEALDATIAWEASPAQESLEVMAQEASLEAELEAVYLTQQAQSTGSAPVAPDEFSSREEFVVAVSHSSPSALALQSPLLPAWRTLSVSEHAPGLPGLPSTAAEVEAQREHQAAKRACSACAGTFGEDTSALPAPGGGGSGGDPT
Sequence of Sodium-dependent noradrenaline transporter (P23975 whole entry): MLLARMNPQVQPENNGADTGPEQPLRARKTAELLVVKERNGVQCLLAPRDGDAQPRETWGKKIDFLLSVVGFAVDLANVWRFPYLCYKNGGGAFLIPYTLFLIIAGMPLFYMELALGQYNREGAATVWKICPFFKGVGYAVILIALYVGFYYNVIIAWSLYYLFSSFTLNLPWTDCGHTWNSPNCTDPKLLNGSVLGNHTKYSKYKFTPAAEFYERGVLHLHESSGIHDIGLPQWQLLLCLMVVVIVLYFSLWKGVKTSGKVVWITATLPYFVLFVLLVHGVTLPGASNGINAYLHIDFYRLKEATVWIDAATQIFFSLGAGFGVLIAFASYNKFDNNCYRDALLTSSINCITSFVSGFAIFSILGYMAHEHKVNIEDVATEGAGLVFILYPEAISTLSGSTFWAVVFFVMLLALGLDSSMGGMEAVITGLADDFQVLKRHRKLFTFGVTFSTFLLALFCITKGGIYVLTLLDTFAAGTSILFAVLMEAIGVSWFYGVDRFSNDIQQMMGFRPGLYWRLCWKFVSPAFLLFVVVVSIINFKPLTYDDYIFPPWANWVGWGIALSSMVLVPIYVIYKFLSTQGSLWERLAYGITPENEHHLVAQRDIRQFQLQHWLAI

Structure (SMILES) | AC50 [1] [µM] | AC50 (Thromboxane A2 receptor) [µM] | AC50 (Progesterone receptor) [µM] | AC50 [2] [µM] | AC50 [3] [µM] | AC50 [4] [µM] | AC50 (Estrogen receptor) [µM] | AC50 [5] [µM]
Cc1ccc2c([nH]c(=O)c3c(=O)cc(C(=O)OCCC(C)C)oc32)c1C | 21.3 | > 30 | > 30 | > 30 | 11.8 | > 30 | > 30 | > 30
COC(=O)N[C@H](C(=O)N1CC2(CC2)C[C@H]1c1ncc(-c2ccc3c(c2)C(F)(F)c2cc(-c4ccc5nc([C@@H]6[C@H]7CC[C@H](C7)N6C(=O)[C@@H](NC(=O)OC)C(C)C)[nH]c5c4)ccc2-3)[nH]1)C(C)C | > 30 | > 30 | > 10 | > 30 | > 30 | > 30 | > 30 | > 30
Cc1cnc(C(=O)O)c[n+]1[O-] [ACIPIMOX] | > 30 | > 30 | > 30 | > 30 | > 30 | > 30 | > 30 | > 30
Nc1ccc(C(=O)NCC(=O)O)cc1 [AMINOHIPPURIC ACID] | > 30 | > 30 | > 30 | > 30 | > 30 | > 30 | > 30 | > 30
CC1(C)S[C@@H]2[C@H](NC(=O)[C@H](NC(=O)c3cnc4cccnc4c3O)c3ccccc3)C(=O)N2[C@H]1C(=O)O [APALCILLIN] | 14.6 | > 30 | > 30 | > 30 | > 30 | > 30 | > 30 | > 30
OCc1ccccc1 [BENZYL ALCOHOL] | > 30 | > 30 | > 30 | > 30 | > 30 | > 30 | > 30 | > 30
O=c1[nH]c(=O)n([C@H]2C[C@H](O)[C@@H](CO)O2)cc1/C=C/Br [BRIVUDINE] | > 30 | > 30 | > 30 | > 30 | > 30 | > 30 | – | > 30
Nc1ccn(C[C@@H](CO)OCP(=O)(O)O)c(=O)n1 [CIDOFOVIR] | > 30 | > 30 | > 30 | > 30 | > 30 | > 30 | – | > 30
CC(=O)OCC(=O)[C@@]1(OC(C)=O)[C@@H](C)C[C@H]2[C@@H]3C[C@H](F)C4=CC(=O)C=C[C@]4(C)[C@@]3(F)[C@@H](O)C[C@@]21C [DIFLORASONE DIACETATE] | > 30 | > 30 | 0.0193 | > 30 | > 30 | > 30 | – | > 30
CC(NCCC(c1ccccc1)c1ccccc1)c1ccccc1 (centres undefined) [FENDILINE] | > 30 | – | > 30 | > 30 | 6.17 | > 30 | > 30 | 3.26
CCn1c(=O)c2c(nc(/C=C/c3ccc(OC)c(OC)c3)n2C)n(CC)c1=O [ISTRADEFYLLINE] | > 30 | > 30 | > 30 | 2.77 | > 30 | > 10 | – | > 30
CC(C)NC[C@H](O)COc1ccc(CCOCC2CC2)cc1 [LEVOBETAXOLOL] | > 30 | > 30 | > 30 | > 30 | > 30 | > 30 | – | > 30
Cc1cccc(C)c1NC(=O)CN(CC(=O)O)CC(=O)O [LIDOFENIN] | > 30 | > 30 | > 30 | > 30 | > 30 | > 30 | – | > 30
CN1CCCC(CC2c3ccccc3Sc3ccccc32)C1 (centres undefined) [METHIXENE] | > 30 | – | > 30 | > 30 | 0.0054 | > 30 | > 30 | 3.29
C#C[C@]1(OC(C)=O)CC[C@H]2[C@@H]3CCC4=CC(=O)CC[C@@H]4[C@H]3CC[C@@]21C [NORETHINDRONE ACETATE] | > 30 | 9.74 | 0.033 | > 30 | 9.44 | > 30 | – | 19.1
Cc1ncc(CO)c(CO)c1O [PYRIDOXINE] | > 3 | > 30 | > 30 | > 30 | > 30 | > 30 | – | > 30
CC(C)N1CCN(c2ccc(OCC3COC(Cn4cncn4)(c4ccc(Cl)cc4Cl)O3)cc2)CC1 (centres undefined) [TERCONAZOLE] | > 30 | – | 18.7 | > 30 | 10.9 | > 30 | > 30 | > 30
COc1cc(C[C@@H]2NCCc3cc(O)c(O)cc32)cc(OC)c1OC [TRETOQUINOL] | 5.31 | – | > 30 | > 30 | > 30 | > 30 | > 30 | > 30
CCOC1O[C@H]([C@@H](COCc2ccccc2)OCc2ccccc2)[C@H](OCc2ccccc2)[C@H]1O (some centres undefined) [TRIBENOSIDE] | > 30 | 11.9 | > 30 | > 30 | > 30 | > 30 | – | > 30
NS(=O)(=O)c1cc2c(cc1Cl)NC(C(Cl)Cl)NS2(=O)=O (centres undefined) [TRICHLORMETHIAZIDE] | > 30 | > 30 | > 30 | > 30 | > 30 | > 30 | – | > 30
CC(CN(C)C)CN1c2ccccc2CCc2ccccc21 (centres undefined) [TRIMIPRAMINE] | > 30 | – | > 30 | > 30 | – | > 30 | > 30 | 18.5
N[C@@H](Cc1ccc(O)cc1)C(=O)O [TYROSINE] | > 30 | > 30 | > 30 | > 30 | > 30 | > 30 | – | > 30
